Assay results: patent US20080255031A1, “METHOD FOR ENHANCING INSULIN SECRETION” (priority 2007, published 2008)
Values joined by “and” are separate entries in the source; they are usually repeats but may differ in a detail not shown here. Identical values can stand only once. Like-named read-outs stand apart in the source and are kept apart here.

Columns and labels:
β1-ARs = target: T1, β1-ARs (Rattus norvegicus, UniProt P18090); test: Isoproterenol-induced cAMP accumulation in rat C6 glioma cells (mostly β1-ARs); assay type: cell-based; details: read-out: KB (Schild), β1-ARs
T1 construct: rat C6 glioma cells (expressing mostly β1-ARS); endogenous in cells; host or cells: rat C6 glioma cells
Procedure: (§1) The effect of ranolazine and its S- and R-enantiomers on cAMP accumulations in rat C6 glioma cells (expressing mostly β1-ARS) and DDT1 MF-2 hamster smooth muscles cells (expressing mostly β2-ARs) were determined. […] However, in the presence of the compounds, the concentration-response curve for the isoproterenol-induced increase in cAMP was shifted to the right with no apparent reduction in the maximal responses, indication that these compounds are competitive antagonists of β1- and β2-ARs. Using the Schild equations for multiple concentrations of the antagonist (ranolazine) or for a single concentration of the enantiomers, the KB values for ranolazine and its S- and R-enantiomers were 9.7, 8.0, and >50 μM (for β1-ARS) and 12.2, 9.0, and >50 μM (for β2-ARs). In summary, ranolazine and its S-enantiomer are competitive antagonists of β1 and β2-ARS with the S-enantiomer having the highest binding affinities of all.

[1] = system: Female rabbit isolated hearts; test: LV monophasic action potential duration (MAPD90) in female rabbit isolated hearts; details: for EC50: Oryctolagus cuniculus
Procedure: The objective of this example is to present the effects of ranolazine and the R- and S-enantiomers of ranolazine on left ventricular monophasic action potential duration (LV MAPD), regional LV dispersion of MAPD (apex-base) and arrhythmogenesis. Female rabbit isolated hearts were perfused with modified K-H solution and paced at a constant rate of 1 Hz after surgical-induced complete atrioventricular block. LV MAPs from the base and apex were measured using contact MAP electrodes.
Each animal was sedated using 6 mg/kg xylazine i.m. and 40 mg/kg ketamine i.m. and then anesthetized by a “cocktail” (ketamine 15 mg/kg+xylazine 4 mg/kg in 1.5 mL saline) i.v. via the marginal ear vein. The thorax was quickly opened. The heart was excised and placed in a modified Krebs-Henseleit (K-H) solution at room temperature. The K-H solution contained (in mmol/L): NaCl 118, KCl 2.8, KH2PO4 1.2, CaCl2 2.5, MgSO4 0.5, pyruvate 2.0, glucose 5.5, Na2EDTA 0.57 and NaHCO3 25. The solution was continuously gassed with 95% O2 and 5% CO2, and its pH was adjusted to 7.4. The aorta was rapidly catheterized and the heart was perfused by the method of Langendorff with K-H solution warmed to 36-36.5° C. at a rate of 20 mL/min with a roller pump (Gilson Minipuls3, Middleton, Wis.). Perfusion pressure was measured (with a Biopac MP 150 pressure transducer, Goleta, Calif.) from a side port of the aortic catheter. To facilitate exit of fluid from the chamber of the left ventricle (LV), the leaflets of the mitral valve were trimmed with fine spring-handled scissors. The right atrial wall was partially removed for AV node ablation to block AV conduction.
Complete AV block was induced by surgical ablation (heated) of AV nodal area. […] A bipolar Teflon-coated electrode was placed on the right ventricular septum to pace the heart. Electrical stimuli 3 msec in width and 3-fold threshold amplitude were delivered to the pacing electrode at a frequency of 1 Hz using a Grass S48 stimulator (W. Warwick, R.I.).
After initiation of ventricular pacing, a 30-40 min delay was allowed for heart rhythm and perfusion pressure to achieve a steady state, an essential experimental condition for recording a good quality monophasic action potential (MAP).
Monophasic action potentials (MAP) and ECG electrodes from Harvard Apparatus Inc. (Holliston, Mass.) were used to record left ventricular MAPs and bipolar ECG. Two MAP electrodes were placed on the epicardial ventricular free wall below the level of atrial-ventricular valves to record basal MAP and apex to record apical MAP signals, respectively. MAP electrodes were pressure-contact Ag—AgCl electrodes attached to a circular holder with springs to maintain the electrodes' contact with the LV epicardial surface. […] Signals were saved on a computer hard disk for subsequent analysis. Bipolar electrocardiogram (ECG) was generated using an isolated-heart ECG apparatus (Harvard Apparatus, Holliston, Mass.) attached to Biopac amplifier system. Coronary perfusion pressure was measured using a pressure transducer (Biopac or PowerLab pressure measuring system). […] All signals were saved on a computer hard disk for subsequent analysis.
Original MAP profiles of 3-5 consecutive beats were superimposed to get one average signal using computer software (Biopac, Goleta, Calif.) and then transferred into Microsoft Excel software and plotted to measure the duration of the MAP at the level at which repolarization is 90% completed (MAPD90).

β2-adrenergic receptors = target: T2, β2-adrenergic receptors (Cavia porcellus, UniProt Q8K4Z4); test: Radioligand binding to β2-ARs, membranes from guinea-pig lung
T2 construct: membranes prepared from rat ventricle and guinea-pig lung, respectively; from tissue; host or cells: guinea-pig lung membranes
Procedure: (§2) The objective of this example is to present the affinities and potencies of ranolazine and its S- and R-enantiomers for β1 and β2-adrenergic receptors (ARs) in various tissues and cell lines. Using radioligand binding techniques, competition of the compounds for specific radioligand binding to β1- and β2-ARs was determined using membranes prepared from rat ventricle and guinea-pig lung, respectively.

normal SD rats = test: Insulin levels during intravenous glucose tolerance test (IVGTT) in normal SD rats; assay type: in vivo, rat; details: 15 mg/kg, 30 minutes prior to glucose
Procedure: Each rat was subjected to an IVGTT according to the method of […] et al, Metabolism 42, (1):1-6, 1993. The rats were fasted overnight before administration of the test. One group of eleven rats was given only saline prior to glucose load while the second group of seven rats was given ranolazine prior to glucose load. Glucose was administered at time zero while ranolazine was administered 30 minutes prior to glucose at a dose of 15 mg/kg of body weight. Then, the insulin concentrations in the blood were measured at -30, 0, 2, 4, 7, 15 and 30 minutes. […] The procedure used was that described in Example 2 above.

β2-ARs = target: T3, β2-ARs (Mesocricetus auratus, UniProt P04274); test: Isoproterenol-induced cAMP accumulation in DDT1 MF-2 hamster smooth muscle cells (mostly β2-ARs); assay type: cell-based; details: read-out: KB (Schild), β2-ARs
T3 construct: DDT1 MF-2 hamster smooth muscles cells (expressing mostly β2-ARs); endogenous in cells; host or cells: DDT1 MF-2 hamster smooth muscle cells
Procedure: as §1

β1-adrenergic receptors = target: T4, β1-adrenergic receptors (Rattus norvegicus, UniProt P18090); test: Radioligand binding to β1-ARs, membranes from rat ventricle
T4 construct: membranes prepared from rat ventricle and guinea-pig lung, respectively; from tissue; host or cells: rat ventricle membranes
Procedure: as §2

[2] = paced at 1 Hz, site not stated, read-out: EC50 to prolong LV MAPD90

T4 sequence (P18090 whole entry): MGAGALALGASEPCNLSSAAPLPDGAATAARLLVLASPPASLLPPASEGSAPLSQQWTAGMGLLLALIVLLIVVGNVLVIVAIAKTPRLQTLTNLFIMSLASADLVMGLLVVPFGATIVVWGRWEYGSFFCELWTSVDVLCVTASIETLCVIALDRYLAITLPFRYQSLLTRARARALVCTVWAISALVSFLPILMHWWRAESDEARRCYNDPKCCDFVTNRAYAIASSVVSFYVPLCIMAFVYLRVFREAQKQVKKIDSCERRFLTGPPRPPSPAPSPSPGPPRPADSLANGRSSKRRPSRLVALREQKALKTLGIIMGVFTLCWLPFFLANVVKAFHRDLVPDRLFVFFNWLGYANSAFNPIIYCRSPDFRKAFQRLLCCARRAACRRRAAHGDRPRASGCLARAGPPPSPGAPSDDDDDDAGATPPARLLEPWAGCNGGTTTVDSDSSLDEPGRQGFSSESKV
T1 sequence (P18090 whole entry): as above
T3 sequence (P04274 whole entry): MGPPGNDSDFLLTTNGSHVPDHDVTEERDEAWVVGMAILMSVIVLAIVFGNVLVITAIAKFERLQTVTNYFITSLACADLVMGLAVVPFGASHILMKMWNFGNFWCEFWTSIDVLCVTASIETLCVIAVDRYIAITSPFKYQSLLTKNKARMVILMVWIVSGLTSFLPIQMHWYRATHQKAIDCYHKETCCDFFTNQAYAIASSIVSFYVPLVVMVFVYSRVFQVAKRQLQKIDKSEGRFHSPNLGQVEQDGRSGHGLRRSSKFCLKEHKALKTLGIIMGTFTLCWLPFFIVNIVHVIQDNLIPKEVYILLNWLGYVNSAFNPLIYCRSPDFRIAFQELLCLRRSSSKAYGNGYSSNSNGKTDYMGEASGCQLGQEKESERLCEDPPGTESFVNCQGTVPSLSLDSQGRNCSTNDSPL
T2 sequence (Q8K4Z4 whole entry): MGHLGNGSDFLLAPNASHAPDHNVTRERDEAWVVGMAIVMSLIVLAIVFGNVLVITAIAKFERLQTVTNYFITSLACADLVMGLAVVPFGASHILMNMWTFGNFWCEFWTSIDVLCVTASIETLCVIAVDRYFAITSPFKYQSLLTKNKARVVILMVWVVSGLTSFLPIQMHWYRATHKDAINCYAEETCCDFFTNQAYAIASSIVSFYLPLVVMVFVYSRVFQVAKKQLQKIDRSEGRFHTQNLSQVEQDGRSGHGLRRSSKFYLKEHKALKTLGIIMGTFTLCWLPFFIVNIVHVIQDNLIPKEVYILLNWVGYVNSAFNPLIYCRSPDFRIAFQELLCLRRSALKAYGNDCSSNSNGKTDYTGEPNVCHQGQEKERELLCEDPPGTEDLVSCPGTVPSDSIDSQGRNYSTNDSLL

Kb (β1-ARs) | EC50 [1, 2] | Ki (β2-adrenergic receptors) | Kb (β2-ARs) | Ki (β1-adrenergic receptors) | EC50 ([1]; paced at 1 Hz, read-out: EC50 to prolong LV MAPD90 (Apex)) | EC50 ([1]; paced at 1 Hz, read-out: EC50 to prolong LV MAPD90 (Base)) | induction of EADs, PVBs or VT ([1]; at any concentration) | SMILES | maximal increase of MAPD90 ([1]; paced at 1 Hz, site not stated) | insulin levels relative to baseline during IVGTT, compared to vehicle treated rats (normal SD rats) | regional MAPD dispersion and PVBs or VT ([1]; 1-100 μM) | maximal increase of apical MAPD90 above control ([1]; paced at 1 Hz, 30-100 μmol/L) | maximal increase of basal MAPD90 above control ([1]; paced at 1 Hz, 30-100 μmol/L)
> 50 µM | 6.4 µM | 39 µM | > 50 µM | > 100 µM | – | – | – | COc1ccccc1OC[C@H](O)CN1CCN(CC(=O)Nc2c(C)cccc2C)CC1 [R-ranolazine, (R)-(+)-N-(2,6-dimethylphenyl)-4-[2-hydroxy-3-(2-methoxyphenoxy)-propyl]-1-piperazineacetamide] | 22±5% | higher | – | – | –
9.7 µM | – | 14.8 µM | 12.2 µM | 8.6 µM | 4.8 µM | 4.3 µM | did not induce any EADs, PVBs or VT | COc1ccccc1OCC(O)CN1CCN(CC(=O)Nc2c(C)cccc2C)CC1 (racemic) [ranolazine, (±)-N-(2,6-dimethylphenyl)-4-[2-hydroxy-3-(2-methoxyphenoxy)propyl]-1-piperazine-acetamide] | – | higher | without increasing regional MAPD dispersion or eliciting premature ventricular beats (PVBs) or ventricular tachycardia (VT) | 35±4% and 35.2±4.1% | 32±4% and 32.2±4.2%
8 µM | 5.9 µM | 6.7 µM | 9 µM | 4.8 µM | – | – | – | COc1ccccc1OC[C@@H](O)CN1CCN(CC(=O)Nc2c(C)cccc2C)CC1 [S-ranolazine, (S)-(−)-N-(2,6-dimethylphenyl)-4-[2-hydroxy-3-(2-methoxyphenoxy)-propyl]-1-piperazineacetamide] | 28±4% | not different from the vehicle treated rats | – | – | –
